These compounds were tested against T1, rACBP1 ((His)6-tagged recombinant AtACBP1) (Arabidopsis thaliana, UniProt Q9SM23) (assay: isothermal titration calorimetry). Conditions: not given.
T1 construct: gene ACBP1; (His)6-tagged, soluble fraction of E. coli BL21(DE3), Ni-NTA purified
T1 sequence (Q9SM23 1-338): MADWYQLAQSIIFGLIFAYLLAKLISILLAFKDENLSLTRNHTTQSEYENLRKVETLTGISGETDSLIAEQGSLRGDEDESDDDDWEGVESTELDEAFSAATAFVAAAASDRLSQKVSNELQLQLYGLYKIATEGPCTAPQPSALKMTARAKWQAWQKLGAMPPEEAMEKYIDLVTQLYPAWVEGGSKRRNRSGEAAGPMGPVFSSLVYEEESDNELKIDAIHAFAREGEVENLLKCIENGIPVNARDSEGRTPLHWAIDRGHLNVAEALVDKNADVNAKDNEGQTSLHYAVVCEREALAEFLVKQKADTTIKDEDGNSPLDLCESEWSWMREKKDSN
Format: binding
Source text: isothermal titration calorimetry on rACBP1 ((His)6-tagged recombinant AtACBP1)

Row | Compound | Kd [nM]
1 | CCCCCCCCCCCCCCCCCCCCCCCC(=O)SCCNC(=O)CCNC(=O)[C@H](O)C(C)(C)COP(=O)(O)OP(=O)(O)OC[C@H]1O[C@@H](n2cnc3c(N)ncnc32)[C@H](O)[C@@H]1OP(=O)(O)O [C24:0, C24:0-CoA] | 2140 ± 130
2 | CCCCCCCCCCCCCCCCCCCCCCCCC(=O)SCCNC(=O)CCNC(=O)[C@H](O)C(C)(C)COP(=O)(O)OP(=O)(O)OC[C@H]1O[C@@H](n2cnc3c(N)ncnc32)[C@H](O)[C@@H]1OP(=O)(O)O [C25:0, C25:0-CoA] | 1690 ± 110
3 | CCCCCCCCCCCCCCCCCCCCCCCCCC(=O)SCCNC(=O)CCNC(=O)[C@H](O)C(C)(C)COP(=O)(O)OP(=O)(O)OC[C@H]1O[C@@H](n2cnc3c(N)ncnc32)[C@H](O)[C@@H]1OP(=O)(O)O [C26:0, C26:0-CoA] | 1940 ± 120

Same assay, conditions: 30 °C; single binding site model

Row | Compound | Kd [nM]
4 | C18:1-CoA | 760 ± 150
5 | C18:2-CoA | 830 ± 40
6 | C18:3-CoA | 440 ± 10
